Assay results as given in patent US20130310374A1, “Substituted Imidazoquinoline Derivatives” (PIRAMAL ENTERPRISES LIMITED`, priority 2010, published 2013).

Experiments:
[1] = system: A2780; experiment: Cytotoxicity propidium iodide assay, A2780; format: cell-based; conditions: Homo sapiens; for IC50: A2780 (ovarian), 48 hours treatment, read-out: IC50 Values in μM, C1a
Protocol: (§1) The assay was designed as in the reference, Anticancer Drugs, 2002, 13, 1-8, the disclosure of which is incorporated herein by reference for the teaching of the assay.
(§2) Cells from cell lines (ATCC) as mentioned in the table given below were seeded at a density of 3000 cells/well in a white opaque 96-well plate. Following incubation at 37° C./5% CO2 for a period of 18-24 hours, the cells were treated with various concentrations (stock solution was prepared in DMSO and subsequent dilutions were made in media as per ATCC guidelines) of the compounds of the present invention for a period of 48 hours. At the end of treatment, the culture medium was discarded, the cells were washed with 1×PBS and 200 μL of […] propidium iodide was added to each well. The plates were frozen at 70° C. overnight. For analysis, the plates were warmed to RT, allowed to thaw and were read in PoleStar fluorimeter with the fluorescence setting. The percentage of viable cells in the non-treated set of wells was considered to be 100 and the percentage viability following treatment was calculated accordingly. IC50 values were calculated from graphs plotted using these percentages. IC50 values for certain compounds of present invention are depicted in Table 1 and % Inhibition of certain compounds of present invention are depicted in Table 2.

[2] = system: T315I; experiment: Cytotoxicity propidium iodide assay, T315I; format: cell-based; conditions: T315I (CML), 48 hours treatment; read-out: IC50 Values in μM, C6b
Protocol: as §1, §2

[3] = system: PI3K/mTOR pathway; experiment: Western blot analysis in A2780 ovarian cancer cell line; format: cell-based; conditions: A2780 cells treated for 1 hour; FIG. 1A-1E
Protocol: Protocol for Western Blot Analysis
A2780 ovarian cancer cell line (ATCC) were grown to approximately 70% confluence in 100-mm tissue culture dishes and then treated for 1 hour with […] compounds of Example 2, 3, 5, 16, 19, 55 and 59. Total protein was extracted using cell lysis buffer (NaCl […], NP40 0.67%, Tris-Cl, pH 7.5, 67 mM) containing protease inhibitors and phosphatase inhibitors (Beta-glycerol phosphate 40 mM, DTT 1 mM, NaF 0.4 mM, Sodium-Orthovanadate 0.4 mM) at 4° C. for 1 hour. Cell lysates were then centrifuged at 2×10^4 g for 10 minutes at 4° C., and the protein concentration of the supernatant was quantified using the Bradford's method (BioRad, USA). For SDS-PAGE, 50 μg protein was loaded in SDS-PAGE, transferred to a polyvinylidene difluoride membrane (Bio-Rad, USA) and blocked with 5 mL buffer [5% skim milk and 0.1% Tween] for 1 hour 30 minutes. Membrane were probed with primary antibody (all primary antibodies were from cell signaling with 1:1000 in TBST solution) of respective protein at 4° C. overnight. Peroxidase-labeled anti-rabbit or anti-mouse antibodies (Santacruze, USA) were used as the secondary antibody. Actin and respective whole protein levels were used as the control for protein loading. Protein antigens were detected using Chemiluminescent Substrate (Thermo scientific, USA) and exposed on Kodak station.

[4] = system: MDA MB 468; experiment: Cytotoxicity propidium iodide assay, MDA MB 468; format: cell-based; conditions: Homo sapiens; MDA MB 468 (breast), 48 hours treatment; read-out: IC50 Values in μM, C3b
Protocol: as §1, §2

[5] = system: PC3; experiment: Cytotoxicity propidium iodide assay, PC3; format: cell-based, human; conditions: Homo sapiens, PC-3; for IC50: PC3 (prostate), 48 hours treatment, read-out: IC50 Values in μM, C2a
Protocol: as §1, §2

[6] = system: KU812/SR; experiment: Cytotoxicity propidium iodide assay, KU812/SR; format: cell-based; conditions: Homo sapiens; KU812/SR (CML), 48 hours treatment; read-out: IC50 Values in μM, C6c
Protocol: as §1, §2

[7] = system: MDA MB 231; experiment: Cytotoxicity propidium iodide assay, MDA MB 231; format: cell-based; conditions: Homo sapiens; MDA MB 231 (breast), 48 hours treatment; read-out: IC50 Values in μM, C3a
Protocol: as §1
as §2, with “The plates were frozen at 70° C. overnight.” left out

[8] = system: LN229; experiment: Cytotoxicity propidium iodide assay, LN229; format: cell-based; conditions: Homo sapiens, LN-229; LN229 (glioblastoma), 48 hours treatment; read-out: IC50 Values in μM, C5a
Protocol: as §1, §2

[9] = system: K562; experiment: Cytotoxicity propidium iodide assay, K562; format: cell-based; conditions: Homo sapiens; K562 (CML), 48 hours treatment; read-out: IC50 Values in μM, C6a
Protocol: as §1, §2

[10] = system: KCL22/SR; experiment: Cytotoxicity propidium iodide assay, KCL22/SR; format: cell-based; conditions: Homo sapiens, KCL-22; KCL22/SR (CML), 48 hours treatment; read-out: IC50 Values in μM, C6e
Protocol: as §1, §2

[11] = system: BxPC3; experiment: Cytotoxicity propidium iodide assay, BxPC3; format: cell-based; conditions: Homo sapiens, BXPC-3; BxPC3 (pancreatic), 48 hours treatment; read-out: IC50 Values in μM, C4c
Protocol: as §1, §2

[12] = system: LN18; experiment: Cytotoxicity propidium iodide assay, LN18; format: cell-based; conditions: Homo sapiens, LN-18; LN18 (glioblastoma), 48 hours treatment; read-out: IC50 Values in μM, C5b
Protocol: as §1, §2

[13] = system: U 87 MG; experiment: Cytotoxicity propidium iodide assay, U 87 MG; format: cell-based; conditions: Homo sapiens; U 87 MG (glioblastoma), 48 hours treatment; read-out: IC50 Values in μM, C5c
Protocol: as §1
as §2, with “The plates were frozen at 70° C. overnight.” left out

[14] = system: BT 549; experiment: Cytotoxicity propidium iodide assay, BT 549; format: cell-based; conditions: Homo sapiens; BT 549 (breast), 48 hours treatment; read-out: IC50 Values in μM, C3c
Protocol: as §1, §2

[15] = system: AsPC 1; experiment: Cytotoxicity propidium iodide assay, AsPC 1; format: cell-based; conditions: Homo sapiens, ASPC1; AsPC 1 (pancreatic), 48 hours treatment; read-out: IC50 Values in μM, C4b
Protocol: as §1
as §2, with “The plates were frozen at 70° C. overnight.” left out

[16] = system: MCF7; experiment: Cytotoxicity propidium iodide assay, MCF7; format: cell-based; conditions: Homo sapiens; MCF7 (breast), 48 hours treatment; read-out: IC50 Values in μM, C3d
Protocol: as §1, §2

[17] = system: KCL22; experiment: Cytotoxicity propidium iodide assay, KCL22; format: cell-based; conditions: Homo sapiens, KCL-22; KCL22 (CML), 48 hours treatment; read-out: IC50 Values in μM, C6f
Protocol: as §1
as §2, with “The plates were frozen at 70° C. overnight.” left out

[18] = system: IFN-γ; experiment: Con-A-induced IFN-γ production from hPBMC; format: cell-based; conditions: Homo sapiens, concanavalin A 1 μg/mL, 18 hours
Protocol: Con-A-Induced IFN-γ Production from hPBMC
(§3) Peripheral blood was collected from normal healthy volunteers after informed consent. Peripheral blood mononuclear cells (hPBMC) were harvested using Ficoll-Hypaque density gradient centrifugation (1.077 g/mL; Sigma Aldrich). hPBMCs were resuspended in RPMI 1640 culture medium (Gibco BRL, Pasley, UK) containing 10% FCS, 100 U/mL penicillin (Sigma Chemical Co. St Louis, Mo.) and […] streptomycin (Sigma Chemical Co. St Louis, Mo.) at 1×10^6 cells/mL. 1×10^5 hPBMCs/well were pre-treated with 0.025 μM of compounds of present invention or 0.5% DMSO (vehicle control) for 30 minutes at 37° C. Subsequently, these cells were stimulated with 1 μg/mL concanavalin A (Sigma Chemical Co., St. Louis, Mo.). Following 18 hours of incubation at 37° C., supernatants were collected and stored at −70° C. until assayed for human IFN-γ by ELISA as described by the manufacturer (OptiEIA ELISA sets, BD BioSciences). In every experiment, cyclosporin (1 μM) was used as a positive control for inhibiting induced IFN-γ production. In all experiments, the toxicity of test compounds was ascertained, in parallel, using the MTS (3-(4,5-dimethylthiazol-2-yl)-5-(3-carboxymethoxyphenyl)-2-(4-sulfonyl)-2H-tetrazolium) assay as described in Am. J. Physiol. Cell Physiol., 2003, 285, C813-C822.

[19] = system: IL-6; experiment: Anti-CD3 mAb and anti-CD28 mAb-induced cytokine production assay, IL-6; format: cell-based; conditions: Homo sapiens, hPBMC, anti-CD3/anti-CD28, 18 hours
Protocol: (§4) Anti-CD3 mAb and Anti-CD28 mAb-Induced Cytokine Production Assay
(§5) Preparation of anti-CD3/anti-CD28 coated plates: 96 well plates were coated with goat anti-mouse IgG, Fc (Millipore) at a concentration of 16.5 μg/mL in coating buffer ([…] NaHCO3, 3.56 g Na2CO3, pH 9.5). Following overnight incubation at 4° C., the plates were washed and then incubated with anti-CD3 (3.5 μg/mL; R&D Systems) and anti-CD28 (35 ng/mL; R&D Systems) cocktail for 3 hours. Subsequently, the plates were washed, and used for hPBMC stimulation.
(§6) hPBMC stimulation: Peripheral blood was collected from normal healthy volunteers after informed consent. Peripheral blood mononuclear cells (hPBMC) were harvested using Ficoll-Hypaque density gradient centrifugation (1.077 g/mL; Sigma Aldrich). hPBMCs were resuspended in RPMI 1640 culture medium (Gibco BRL, Pasley, UK) containing 10% FCS, 100 U/mL penicillin (Sigma Chemical Co. St Louis, Mo.) and […] streptomycin (Sigma Chemical Co. St Louis, Mo.) at 1.25×10^6 cells/mL of assay medium. 2.5×10^5 hPBMCs were added per well of 96-well plate coated with or without anti-CD3/anti-CD28 mAbs. Simultaneously, 0.025 μM of compounds of the present invention or 0.5% DMSO (vehicle control) were added to appropriate wells. The cells were then incubated for 18 hours at 37° C., 5% CO2 following which supernatants were collected, stored at […] and assayed later for TNF-α, IL-6 and IFN-γ by ELISA (OptiEIA ELISA sets; BD Biosciences). In every experiment, each condition was run in triplicate wells. In all experiments, the toxicity of test compounds was ascertained, in parallel, using the MTS (3-(4,5-dimethylthiazol-2-yl)-5-(3-carboxymethoxyphenyl)-2-(4-sulfonyl)-2H-tetrazolium) assay as described in Am. J. Physiol. Cell Physiol., 2003, 285, C813-C822.

[20] = system: hPBMC; experiment: MTS toxicity assay in parallel to anti-CD3/anti-CD28 cytokine assay; format: cell-based, human; conditions: anti-CD3/anti-CD28 experiment
Protocol: as §6

[21] = system: IFN-γ; experiment: Anti-CD3 mAb and anti-CD28 mAb-induced cytokine production assay, IFN-γ; format: cell-based; conditions: Homo sapiens, hPBMC, anti-CD3/anti-CD28, 18 hours
Protocol: as §4, §5, §6

[22] = system: hPBMC; experiment: MTS toxicity assay in parallel to Con-A-induced IFN-γ assay; format: cell-based, human; conditions: Con-A experiment
Protocol: as §3

[23] = system: TNF-α; experiment: Anti-CD3 mAb and anti-CD28 mAb-induced cytokine production assay, TNF-α; format: cell-based; conditions: Homo sapiens, hPBMC, anti-CD3/anti-CD28, 18 hours
Protocol: as §4, §5, §6

| SMILES | IC50 [1] | IC50 [2] | IC50 [5] | IC50 [6] | IC50 [8] | IC50 [9] | IC50 [10] | IC50 [12] | IC50 [13] | IC50 [14] | further results |
| --- | --- | --- | --- | --- | --- | --- | --- | --- | --- | --- | --- |
| Cn1c(=O)n(-c2ccc(C(F)(F)F)nc2)c2c3cc(-c4cnc(N)c(C(F)(F)F)c4)ccc3ncc21 [Example 55, 8-(6-Amino-5-(trifluoromethyl)pyridin-3-yl)-3-methyl-1-(6-(trifluoromethyl)pyridin-3-yl)-1H-imidazo[4,5-c]quinolin-2(3H)-one] | 0.009 µM | 0.19 µM | 1.6 µM | 0.23 µM | 0.096 µM | 0.056 µM | 0.06 µM | 0.282 µM | 7.92 µM | 0.17 µM | Akt, S6 and 4EBP1 phosphorylation (Western blot) [3]: inhibit Akt, S6 and 4EBP1 phosphorylation; IC50 [4]: 0.075 µM; IC50 [7]: 0.035 µM; IC50 [11]: 0.027 µM; IC50 [15]: 0.04 µM; IC50 [16]: 0.06 µM |
| Cn1c(=O)n(-c2ccc(Cl)nc2Cl)c2c3cc(-c4cccnc4)ccc3ncc21 [Example 62, 1-(2,6-Dichloropyridin-3-yl)-3-methyl-8-(pyridin-3-yl)-1H-imidazo[4,5-c]quinolin-2(3H)-one] |  |  |  | 0.84 µM | 1.03 µM | 0.144 µM | 0.62 µM | 1.08 µM | 9.92 µM | 1.5 µM | inhibition at 1 µM ([1]; A2780, 1 μM, 48 hours, read-out: % Inhibition at 1 μM, C1a): 69%; inhibition at 1 µM ([5]; PC3, 1 μM, 48 hours, read-out: % Inhibition at 1 μM, C2a): 28% |
| Cn1c(=O)n(-c2ccc(C(C)(C)C#N)nc2)c2c3cc(-c4cccnc4)ccc3ncc21 [Example 1, 2-Methyl-2-(5-(3-methyl-2-oxo-8-(pyridin-3-yl)-2,3-dihydro-1H-imidazo[4,5-c]quinolin-1-yl)pyridin-2-yl)propanenitrile] | 0.4 µM | 3.3 µM | 0.22 µM | 0.96 µM |  | 0.9 µM | 0.62 µM |  |  |  | IC50 [17]: 1.18 µM |
| Cn1c(=O)n(-c2ccc(C(F)(F)F)nc2)c2c3cc(-c4ccc(F)nc4F)ccc3ncc21 [Example 57, 8-(2,6-Difluoropyridin-3-yl)-3-methyl-1-(6-(trifluoromethyl)pyridin-3-yl)-1H-imidazo [4,5-c]quinolin-2(3H)-one] |  |  |  |  |  |  |  |  |  |  | inhibition at 0.025 µM [18]: 88%; inhibition at 0.025 µM [19]: 94%; % Toxicity at 0.025 μM [20]: 14%; inhibition at 0.025 µM [21]: 88%; % Toxicity at 0.025 μM [22]: 14%; inhibition at 0.025 µM [23]: 80% |
